Test results published in ChEMBL document CHEMBL1140586, “Design and synthesis of a functionally selective D3 agonist and its in vivo delivery via the intranasal route” (Bioorg Med Chem Lett, 2007).

Legend:
[1] = Clearance in human; type: ADME, organism-based; conditions: in vivo
[2] = biological target: D(3) dopamine receptor (Homo sapiens, UniProt P35462); assay: Agonist activity at human recombinant dopamine D3 receptor expressed in CHO cells assessed as inhibition of forskolin-stimulated cAMP accumulation; type: functional, cell-based
[3] = biological target: D(2) dopamine receptor (Homo sapiens, UniProt P14416); assay: Agonist activity at human recombinant dopamine D2 receptor expressed in rat pituitary cells assessed as inhibition of forskolin-stimulated cAMP accumulation; type: functional, cell-based, Pituitary gland cell
Chain of D(2) dopamine receptor (P14416 whole entry): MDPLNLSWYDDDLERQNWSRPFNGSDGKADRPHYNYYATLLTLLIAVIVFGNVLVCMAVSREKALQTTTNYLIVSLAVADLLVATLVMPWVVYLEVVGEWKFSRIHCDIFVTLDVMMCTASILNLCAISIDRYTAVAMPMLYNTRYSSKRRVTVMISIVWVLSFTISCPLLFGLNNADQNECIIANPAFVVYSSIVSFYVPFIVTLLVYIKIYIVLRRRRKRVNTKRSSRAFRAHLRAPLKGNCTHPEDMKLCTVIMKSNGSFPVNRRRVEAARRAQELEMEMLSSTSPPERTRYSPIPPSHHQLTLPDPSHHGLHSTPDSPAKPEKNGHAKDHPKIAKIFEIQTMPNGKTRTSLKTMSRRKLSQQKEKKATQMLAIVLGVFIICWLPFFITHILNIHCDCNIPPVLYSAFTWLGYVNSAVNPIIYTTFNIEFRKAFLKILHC

Chain of D(3) dopamine receptor (P35462 whole entry): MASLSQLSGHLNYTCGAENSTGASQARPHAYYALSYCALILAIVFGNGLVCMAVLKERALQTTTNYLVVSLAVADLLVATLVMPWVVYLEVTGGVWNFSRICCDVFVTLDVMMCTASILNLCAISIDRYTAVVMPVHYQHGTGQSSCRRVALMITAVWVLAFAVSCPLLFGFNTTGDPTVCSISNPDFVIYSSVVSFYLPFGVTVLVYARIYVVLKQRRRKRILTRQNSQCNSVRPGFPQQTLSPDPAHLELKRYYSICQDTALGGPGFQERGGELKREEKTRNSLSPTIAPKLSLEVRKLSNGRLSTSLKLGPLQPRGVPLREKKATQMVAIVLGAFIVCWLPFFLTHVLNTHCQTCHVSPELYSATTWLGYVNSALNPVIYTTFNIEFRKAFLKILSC

SMILES | clearance [1] | EC50 [2] | EC50 [3]
CC(C)(C)NCC(O)c1cc(O)cc(O)c1 (configuration not stated) [TERBUTALINE] | 3.1 mL/min/kg | – | –
CCCN1CCOC(c2cccc(C(=O)OC)c2)C1 (configuration not stated) | – | > 1000 nM | –
CCCN1CCOC(c2cccc(OC(F)(F)F)c2)C1 (configuration not stated) | – | > 1000 nM | > 1 µM
CCCN1CCO[C@@H](c2ccc(F)c(O)c2)C1 | – | > 10000 nM | > 10 µM
CCCN1CCOC(c2cc(O)cc(O)c2)C1 (configuration not stated) | – | 37 nM | –
CCCN(CCC)CCc1cccc2c1CC(=O)N2 [ROPINIROLE] | – | – | 0.083 µM
Oc1cccc(C2CNCCO2)c1 (configuration not stated) | – | 864 nM | 7.2 µM
CCCN1CCOC(c2cccc(O)c2C)C1 (configuration not stated) | – | > 1000 nM | –
CCCN1CCO[C@@H](c2cccc(O)c2)C1 | – | > 5000 nM | > 10 µM
CC(=O)NCCCCN1CCOC(c2cccc(O)c2)C1 (configuration not stated) | – | > 10000 nM | > 10 µM
CCCN1CCOC(c2ccc(O)c(N)c2)C1 (configuration not stated) | – | 40 nM | –
CCCN1CCOC(c2ccc(O)c(C(C)=O)c2)C1 (configuration not stated) | – | > 1000 nM | –
CCCN1CCOC(c2ccc(F)c(O)c2)C1 (configuration not stated) | – | 35 nM | –
CCCN1CCOC(c2cccc(O)c2)C1 (configuration not stated) | – | 27 nM | > 10 µM
CCCN1CCOC(c2cc(O)cc(C#N)c2)C1 (configuration not stated) | – | > 10000 nM | –
CCCN1CCOC(c2ccccc2)C1 (configuration not stated) | – | > 1000 nM | > 10 µM
CCCN1CCOC(c2cccc(C(N)=O)c2)C1 (configuration not stated) | – | > 1000 nM | –
C=CCN1CCOC(c2cccc(O)c2)C1 (configuration not stated) | – | 1310 nM | > 100 µM
CCCN1CCOC(c2ccc(O)cc2)C1 (configuration not stated) | – | > 1000 nM | –
CCCN1CCOC(c2cc(O)ccc2Br)C1 (configuration not stated) | – | > 10000 nM | –
COCCN1CCOC(c2cccc(O)c2)C1 (configuration not stated) | – | > 3000 nM | > 10 µM
CCCN1CCOC(c2cccc(C#N)c2)C1 (configuration not stated) | – | > 1000 nM | –
CCCN1CCOC(c2cccc(-c3nnc[nH]3)c2)C1 (configuration not stated) | – | > 1000 nM | –
